Laboratory results from article PMC10454396 (International Journal of Molecular Sciences, 2023).
≈ marks a conversion by molar mass, not a printed value. Where two headings read alike, the source gives them in different places.

Key:
[1] = test system: Staphylococcus aureus Newman mCherry; assay: MIC, broth microdilution, mCherry-expressing S. aureus Newman; format: cell-based; conditions: Staphylococcus aureus, NEWMAN
Experimental: Cefazolin was obtained from Acros Organics. Ciprofloxacin hydrochloride, linezolid and vancomycin hydrochloride were obtained from Sigma-Aldrich (St. Louis, MO, USA). Tetracycline hydrochloride was obtained from Alfa Aesar. Sorangicin A was provided by HZI, Braunschweig. Stock solutions were prepared in Milli-Q water or dimethyl sulfoxide (DMSO, Sigma-Aldrich). Minimum inhibitory concentrations (MICs) were determined in cation-adjusted Mueller-Hinton broth (MHB2) using the broth microdilution method as recommended by the Clinical and Laboratory Standards Institute (CLSI). The MIC was defined as the lowest concentration of the antibiotic causing complete inhibition of visible growth of the microorganism (CLSI, 2017).
1. In vitro characterization of mCherry expressing Staphylococcus aureus Newman
1.1 Minimum inhibitory concentration
Table S1. Antibiotic susceptibility profile of Staphylococcus aureus Newman. WT: wild type. […]

[2] = Phase I metabolic stability, mouse liver microsomes; format: in vitro ADME; conditions: pooled liver microsomes, pH 7.4
Experimental: (§1) For the evaluation of phase I metabolic stability, the compound (1 µM) was incubated with 0.5 mg/mL pooled mouse/rat liver microsomes (Xenotech, Kansas City, MO, USA) or human liver microsomes (Corning, NY, USA), 2 mM NADPH and 10 mM MgCl2 at pH 7.4 for 120 min at 37 °C. The metabolic stability of testosterone, verapamil and ketoconazole were determined in parallel to confirm the enzymatic activity of mouse/rat liver microsomes; for human liver microsomes testosterone, diclofenac and propranolol were used. The incubation was stopped after defined time points by precipitation of aliquots of the assay mixture with two volumes of ice-cold acetonitrile containing internal standard (15 nM diphenhydramine). Samples were stored on ice until the end of the incubation and precipitated protein was removed by centrifugation (15 min, 4 °C, 4000× g).

[3] = Phase I metabolic stability, rat liver microsomes; format: in vitro ADME; conditions: pooled liver microsomes, pH 7.4
Experimental: as §1

[4] = Phase I metabolic stability, human liver microsomes; format: in vitro ADME; conditions: pH 7.4
Experimental: as §1

[5] = format: in vitro ADME; conditions: mouse plasma
Experimental: To determine stability in plasma, a similar setup as for the determination of metabolic stability was applied using pooled mouse, human or rat plasma (Neo Biotech, Nanterre, France). Samples were taken by mixing aliquots with four volumes of ice cold acetonitrile containing internal standard (12.5 nM diphenhydramine). The plasma stability of procain, propantheline and diltiazem were determined in parallel to confirm the enzymatic activity.

[6] = Plasma protein binding (RED), human plasma; format: in vitro ADME; conditions: pooled plasma, pH 7.4, human plasma
Experimental: Plasma protein binding was determined using the Rapid Equilibrium Dialysis (RED) system (Thermo Fisher Scientific, Waltham, MA, USA). The compound was diluted in pooled murine (CD-1)/human or Wistar rat plasma (Neo Biotech, Nanterre, France) to 10 µM and added to the respective chamber according to the manufacturer’s protocol, followed by addition of PBS pH 7.4 to the opposite chamber. Samples were taken immediately after addition to the plate as well as after 2, 4 and 5 h by mixing 10 µL with 80 µL ice-cold acetonitrile containing 12.5 nM diphenhydramine as internal standard, followed by addition of 10 µL plasma to samples taken from PBS and vice versa. Samples were stored on ice until the end of the incubation and precipitated protein was removed by centrifugation (15 min, 4 °C, 4000× g, 2 centrifugation steps). Concentration of the remaining test compound at the different time points was analyzed by HPLC-MS/MS (TSQ Altis Plus, Thermo Fisher, Dreieich, Germany). The amount of compound bound to protein was calculated using the equation PPB [%] = 100 − 100 × (amount in buffer chamber/amount in plasma chamber).

CYP3A4 = conditions: cited from earlier work

## C/C(=C\[C@H](C)CCCCC(=O)O)[C@@H]1O[C@@H]2C=C[C@H]1OC(=O)\C=C/C=C\C=C\[C@H]1O[C@@H]3C[C@H]1O[C@@H](/C=C/C[C@H]1O[C@H](C[C@H](O)[C@H]1C)[C@@H](O)[C@@H](O)/C=C/CC/C=C/C2)[C@@H]3C [sorangicin A]
[1]
  MIC: 0.0625 µg/mL (≈ 0.0774 µM)
[2]
  microsomal CLint at 1 µM: 557 ± 297 µL/min/mg
[3]
  microsomal CLint at 1 µM: 239 ± 155 µL/min/mg
[4]
  microsomal CLint at 1 µM: 90.4 ± 16.5 µL/min/mg
[5]
  plasma concentration after 4 h incubation: below the limit of detection
[6]; 10 µM, read-out: PPB (converted)
  fraction unbound at 10 µM: 0.13
[6]; read-out: free fraction
  fraction unbound at 10 µM: > 0.1
CYP3A4
  CYP3A4 induction: only moderate CYP3A4 induction
